Data published in US11255843B2, “Compositions and methods for identifying metabolically active agents” (Northwestern University, priority 2016, dated 2022).
Counter-ions that a name gives are not always drawn.

Legend:
[1] = system: PdxCreER;Bmal1flx/flx islets; assay: Static insulin secretion assay in islets isolated from tamoxifen-treated PdxCreER;Bmal1flx/flx mice (ELISA); format: cell-based, mouse; settings: islets from tamoxifen-treated mutant vs control mice, stimulated 1 hour; 1 mM carbachol, 10 μM PMA, 10 μM ionomycin, 2.5 μM forskolin, 1 mM 8-Br-cAMP
Protocol: Mouse pancreatic islets were isolated via bile duct collagenase digestion (Collagenase P, Sigma) and Ficoll gradient separation and left to recover overnight (16 hours) at 37° C. in RPMI 1640 with 10% fetal bovine serum (FBS), 1% 1-glutamine, and 1% penicillin/streptomycin. For standard insulin release assays, five islets were statically incubated in Krebs-Ringer buffer (KRB) and stimulated for 1 hour at 37° C. with various glucose concentrations, 30 mM KCl, 2.5 μM forskolin, 1 mM 8-Br-cAMP, 10 mM 1-leucine+2 mM 1-glutamine, 1 mM carbachol, 10 μM PMA, or 10 μM ionomycin. Supernatant was collected and assayed for insulin content by enzyme-linked immunosorbent assay (ELISA; Crystal Chem Inc.). Islets were then sonicated in acid-ethanol solution and solubilized overnight at 4° C. before assaying total insulin content by ELISA. For rhythmic insulin release assays, islets were first synchronized with 10 μM forskolin (Sigma) for 1 hour and allowed to recover for 16 hours. Insulin secretion assays were then performed as above in individual groups of five islets every 4 hours for 72 hours (FIG. 5A). Human islets (obtained from IIDP) were cultured in RPMI 1640 with 10% human AB serum, 1% 1-glutamine, and 1% penicillin/streptomycin (see table in FIG. S4A for details of sex, age, BMI, and IIDP ID numbers of the three donors). For the rhythmic analysis of RNAs in murine and human islets, RNA was isolated (described below) in groups of 200 islets every 4 hours for 48 or 24 hours, respectively, starting 40 hours after forskolin synchronization (FIG. 5A).
For in vivo delivery of tamoxifen (Sigma, dissolved in corn oil), mice received three intraperitoneal (i.p.) injections of 200 μg tamoxifen/g body weight, administered every other day. Subsequent experiments were conducted 10 to 14 days after tamoxifen treatment. For in vitro administration of tamoxifen, isolated islets were incubated for 24 hours with […] tamoxifen (dissolved in ethanol) prior to transfer to complete media for 24 hours to recover. Islets were then synchronized with forskolin prior to insulin secretion assays as described above.

myotubes and MEFs = assay: Core clock gene expression after chemical hypoxia mimetic (qPCR); format: cell-based, mouse; settings: hypoxia induced with chemical mimetic CoCl2
Protocol: Total RNA was extracted from C2C12 and MEF cell pellets and snap-frozen mouse skeletal muscle tissue using Tri-Reagent (Molecular Research Center, Inc). For muscle tissue samples, tissue was homogenized using a TissueLyser II apparatus (Qiagen). cDNA was synthesized using the High Capacity cDNA Reverse Transcription kit (Applied Biosystems). Real-time PCR was performed and analyzed using a CFX384 (Biorad). PCR conditions were: 10 min at 95° C., then 35 cycles of 10 s at 95° C., 15 s at 60° C. Relative expression levels (normalized to 18S rRNA (C2C12 and MEF) or β-actin (skeletal muscle)) were determined using the comparative CT method.

C2C12 myotubes = settings: 62.5 uM DMOG; DMSO-treated controls 22 hrs, p<0.05
Protocol: For PERIOD2:LUCIFERASE (PER2:LUC) reporter assays, C2C12 myoblast cells were first infected with PER2:LUC-expressing lentivirus (gift of A. Liu, University of Memphis) (18454201) and maintained in DMEM that included 10% FBS and 2.5 μg/ml blastocidin to select for stable Per2-luc integration. Myoblasts were then differentiated for 5 days with 2% horse serum, and then synchronized in 50% horse serum for 2 hours.

Bmal1−/− Beta TC-6 cells = assay: High throughput insulin-NanoLuc screen for drugs that restore glucose-stimulated insulin secretion; format: cell-based, mouse; settings: 10 uM compound + 20 mM glucose, 1 hr
Protocol: A high throughput screen was used to identify small molecule drugs capable of restoring glucose-stimulated insulin secretion in clock-deficient beta cells. Bmal1^−/− beta cells and primary islets display reduced glucose-stimulated insulin secretion (GSIS) and that agonists of Gq-coupled muscarinic receptor and diacyl glycerol (DAG) signaling rescue secretion to that of wild type cells. Compounds to augment GSIS in Bmal1^−/− cells were identified by adding compounds in combination with 20 mM glucose and using the DAG mimetic Phorbol 12-myristate 13-acetate (PMA), which rescues GSIS in these cells, as a positive control. The spectrum collection small molecule compound library (MicroSource Discovery Systems, Inc) consisting of 2700 known drugs and drug-like molecules was screened for compounds that augment insulin secretion in Bmal1^−/− Beta TC-6 cells. Insulin Nanoluc expressing Bmal1^−/− Beta TC-6 cells (30,000 cells/well) were plated in 384 well plates and cultured for 4 days at 37° C. with 5% CO2. Prior to the assay, cells were washed once with KRB buffer containing 0 mM glucose and starved in glucose-free KRB buffer for 1 hour. After aspirating, KRB buffer containing 20 mM glucose in addition to small molecules (10 uM) were added, and the cells were incubated for 1 hour. As a negative control, 16 wells received only 20 mM glucose, which fails to elicit insulin secretion in Bmal1^−/− cells, and an additional 16 wells received KRB buffer containing 20 mM glucose and 10 μM PMA, which is known to induce insulin secretion in Bmal1^−/− mouse islets and Beta TC-6 cells. After 1 hour, the supernatant was collected and centrifuged at 500G for 30 min. The supernatant was transferred into a fresh 384-well assay plate containing Nano-Glo Luciferase Assay Substrate (Promega) and luciferase intensity was measured by EnSpire Plate Reader (PerkinElmer) Intensity was measured within 30 minutes.
Z scores for luciferase intensities produced by screened compounds were calculated from the following formula: z=(X−μ)/σ where z is the z-score, X is intensity of compounds, μ is the intensity of negative control (20 mM glucose), and σ is the standard deviation of negative control. Hit compounds were defined as those that elicited a response of more than 3 standard deviations from the mean (Z score>3). Hit Compounds
The Spectrum Collection small molecule compound library (MicroSource Discovery Systems, Inc), which consists of 2700 known drugs and drug-like molecules, was screened for compounds that augment insulin secretion in Bmal1^−/− Beta TC-6 cells. Insulin Nanoluc-expressing Bmal1^−/− Beta TC-6 cells (30,000 cells/well) were placed into 384 well plates and cultured for 4 days at 37° C. and 5% CO2. The cells were washed once and starved in KRB buffer containing 0 mM glucose for 1 hr. After removing the KRB, KRB buffer containing 20 mM glucose in addition to the small molecules (10 uM) were added, and the cells were incubated for 1 hr. As a negative control, 16 wells received KRB buffer with only 20 mM glucose, which fails to elicit insulin secretion in Bmal1^−/− cells, and as a positive control, 16 wells received KRB buffer containing 20 mM glucose and 10 μM PMA, which is known to induce insulin secretion in both Bmal1^−/− mouse islets and Beta TC-6 cells. After 1 hr, the supernatant was collected and centrifuged at 500 g for 30 min. The supernatant was transferred into a fresh 384-well assay plate containing Nano-Glo Luciferase Assay Substrate (Promega), and luciferase intensity was measured by EnSpire Plate Reader (PerkinElmer) within 30 minutes.
Z scores for luciferase intensities produced by screened compounds were calculated from the following formula: z=(X−μ)/σ (where z is the Z score, X is the intensity of the compounds, μ is the intensity of negative control (20 mM glucose), and a is the standard deviation of negative control). A row-based correction factor was applied to all luciferase readings to adjust for logarithmic signal decay. […]

wild-type βTC-6 cells [2] = assay: Glucose-stimulated insulin secretion assay in Beta TC-6 cells (ELISA); format: cell-based, mouse; settings: for effect on glucose-stimulated insulin secretion and calcium flux (validation of hits): hit compounds at 10 and 100 μM, 0 or 20 mM glucose
Protocol: Beta TC-6 cells (300,000 cells/well) were seeded into poly-L-lysine-coated 24 well plates and cultured for 48-72 hrs at 37° C. and 5% CO2. The cells were washed once and incubated in KRB buffer containing 0 mM glucose for 1 hr. Cells were then treated for 1 hr with KRB buffer containing 0 or 20 mM glucose in the presence of hit compounds (including ivermectin, alexidine, and tomatine at final concentrations of 10 and 100 μM) or an equivalent volume of DMSO as a vehicle control. Supernatants were then collected and centrifuged at 500G for 30 min and assayed for insulin content by ELISA (Crystal Chem Inc). Cell lysates were harvested in acid-ethanol solution (0.18M HCl in 70% Ethanol), sonicated, and solubilized overnight at 4° C. before assaying total insulin content by ELISA. For insulin secretion assays following prolonged ivermectin treatment, cells were first treated with 10 μm ivermectin for 24 hrs prior to the 1 hr incubation with 0 mM glucose KRB buffer.

Beta-TC6 cells = assay: Intracellular calcium determination with Fura2-AM dye; format: cell-based, mouse; settings: Fura2-AM ratiometric, 10 μM ionomycin
Protocol: BetaTC-6 cells were plated at a density of 100,000 cells per well in black 96-well plates with clear bottoms and cultured overnight at 37° C. and 5% CO2. Islets were dispersed to single cells by incubating in 0.05% Trypsin-EDTA at 37° C. for 3 min and plated at a density of 100 islets per well in laminin-treated black 96-well plates with clear bottoms and cultured in complete media for 48 hours at 37° C. and 5% CO2. Cells were then washed with BSA-free KRB buffer with no glucose and loaded with 5 μM Fura-2 (Invitrogen) and 0.04% Pluronic F-127 (Invitrogen) for 30 min at 37° C. Following a wash with BSA-free KRB, Fura-2 intensity was measured after injection of either glucose or ionomycin (Sigma) to final concentrations of 20 mM or 10 μM, respectively. Cells were alternately excited with 340- and 380-nm light, and the emitted light was detected at 510 nm using a Cytation 3 Cell Imaging Multi-Mode Reader (Bio Tek) at sequential 30-s intervals. Raw fluorescence data were exported to Microsoft Excel and expressed as the 340/380 ratio for each well.

wild-type βTC-6 cells [3] = assay: Calcium flux (Fura-2) after exposure to glucose and compound; format: cell-based, mouse; settings: ivermectin 10 μM with glucose
Protocol: BetaTC-6 cells were plated at a density of 100,000 cells per well in black 96-well plates with clear bottoms and cultured overnight at 37° C. and 5% CO2. Cells were then washed with BSA-free KRB buffer with no glucose and loaded with 5 μM Fura-2 (Invitrogen) and 0.04% Pluronic F-127 (Invitrogen) for 30 min at 37° C. Following a wash with BSA-free KRB, Fura-2 intensity was measured following injection of either glucose alone or indicated compounds. Cells were alternately excited with 340 nm and 380 nm wavelength light, and the emitted light was detected at 510 nm using a Cytation 3 Cell Imaging Multi-Mode Reader (Bio Tek) at sequential 30-second intervals. Raw fluorescence data were exported to Microsoft Excel and expressed as the 340/380 ratio for each well.

Compound | insulin secretion in PdxCreER;Bmal1flx/flx islets in response to secretagogue [1] | glucose-dependent insulin secretion in the absence of BMAL1 (hit compound) (Bmal1−/− Beta TC-6 cells) | effect on glucose-stimulated insulin secretion and calcium flux (validation of hits) (wild-type βTC-6 cells [2]) | also measured
Nc1ncnc2c1nc(Br)n2[C@@H]1O[C@@H]2COP(=O)(O)O[C@H]2[C@H]1O [8-br-cAMP] | secreted significantly less insulin than controls |  |  | 
[Cl][Co][Cl] [CoCl2, cobalt chloride] |  |  |  | expression of core clock genes (myotubes and MEFs): increased expression of core clock genes
COC(=O)CNC(=O)C(=O)OC [DMOG, dimethyloxalyl glycine] |  |  |  | period of PER2:LUC oscillations (C2C12 myotubes): 23 h
CCCCCCCCCCCCCC(=O)O[C@@H]1[C@@H](C)[C@@]2(O)[C@@H](C=C(CO)C[C@]3(O)C(=O)C(C)=C[C@@H]23)[C@@H]2C(C)(C)[C@]12OC(C)=O [PMA, phorbol 12-myristate 13-acetate] | restored insulin secretion | rescues GSIS |  | 
CCCCC(CC)CNC(=N)NC(=N)NCCCCCCNC(=N)NC(=N)NCC(CC)CCCC (stereo not drawn) [alexidine hydrochlodire] |  | stimulate glucose-dependent insulin secretion | impact both glucose-stimulated insulin secretion and calcium flux | 
C[N+](C)(C)CCOC(N)=O [carbachol] | restored insulin secretion | stimulate glucose-dependent insulin secretion |  | 
C[C@H](CCC(=O)O)C[C@H](C)C[C@H](C)C(=O)/C=C(\O)[C@H](C)C[C@H](C)C/C=C/[C@@H](C)[C@@H](O)[C@@H](C)[C@@H](O)C[C@@H]1CC[C@@](C)([C@H]2CC[C@@](C)([C@@H](C)O)O2)O1 [ionomycin] | significantly reduced in mutants |  |  | intracellular Ca2+ (Beta-TC6 cells): raised intracellular Ca2+
CNC1(C)C2CCC(C2)C1(C)C (stereo not drawn) [mecamylamine hydrochloride] |  | stimulate glucose-dependent insulin secretion |  | 
C[C@H]1CC[C@]2(NC1)O[C@H]1C[C@H]3[C@@H]4CC[C@H]5C[C@@H](O[C@@H]6O[C@H](CO)[C@H](O[C@@H]7O[C@H](CO)[C@@H](O)[C@H](O[C@@H]8OC[C@@H](O)[C@H](O)[C@H]8O)[C@H]7O[C@@H]7O[C@H](CO)[C@@H](O)[C@H](O)[C@H]7O)[C@H](O)[C@H]6O)CC[C@]5(C)[C@H]4CC[C@]3(C)[C@H]1[C@@H]2C [tomatine] |  | stimulate glucose-dependent insulin secretion | impact both glucose-stimulated insulin secretion and calcium flux | 
ivermectin |  | stimulate glucose-dependent insulin secretion | impact both glucose-stimulated insulin secretion and calcium flux | glucose-stimulated insulin secretion in wild-type βTC-6 cells (wild-type βTC-6 cells [2]; acute or prolonged exposure, presence or absence of glucose): enhances glucose-stimulated insulin secretion; calcium flux in wild-type βTC-6 cells (wild-type βTC-6 cells [3]): enhances glucose-stimulated insulin secretion and calcium flux
